We go through six compounds from US4997931A, “Epipodophyllotoxin glycosides” (Bristol-Myers Squibb Company, priority 1990, dated 1991).

The structures appear in SMILES notation. Values after ≈ are worked out from the molar mass of the structure shown. Where only a bound is given, the exact number is not on record here.

For assay [1], the system named is Murine melanoma B16-F10 cells. The assay can be described thus: In vitro cytotoxicity against B16-F10 cells (neutral red staining, 72 hours). The class given is cell-based. To be noted: Mus musculus, 72 hours incubation, read-out: Cytotoxicity (IC50, μg/ml). As to the method: Murine melanoma B16-F10 cells were grown and maintained at 37° C. under a humidified atmosphere in a 5% CO2 incubator in Eagle's MEM medium (Nissui) containing kanamycin (60 μg/ml), and supplemented with heat inactivated fetal calf serum (10%) and non-essential amino acids (0.6%). Exponentially growing B16-F10 cells were harvested, counted and suspended in the culture medium at a concentration of 2.0×10^4 cells/ml. Twenty-four hours after planting cell suspension (180 μl) into wells of a 96-well microtiter plate, test materials (20 μl) were added to the wells and the plates were incubated for 72 hours. The cytotoxic activity against B16-F10 cells was colorimetrically determined at 540 nm after staining viable cells with neutral red solution.
(§1) For the in vivo expermient, only the maximum T/C% and the dose giving the maximum value are shown.

A further assay deals with murine P388 leukemia. Kind of assay: In vivo antitumor activity in the lymphocytic leukemia P388 system. To be noted: i.p., once on day 1 (Q1D×1), over 125% significant. Set-up: species or system mouse (Female CDF1 mice). The method, then:
Antitumor activity of representative compounds of the present invention was tested in the lymphocytic leukemia P388 system. Female CDF1 mice were inoculated intraperitoneally with 1.0×10^6 of leukemia cells per mouse (day 0) and test materials were intraperitoneally administered to mice once on day 1 (Q1D×1). […] The median survival time (MST) of each test group was recorded, and antitumor activity was expressed by means of T/C% values calculated by the following equation:
T/C%=(MST treated.div.MST control)×100
The T/C% values of over 125% are considered significant antitumor activity.
as §1

The mark [2] stands for this setting: 120 mg/kg/Day (dose giving maximum T/C%).
Where [3] appears, read: 60 mg/kg/Day (dose giving maximum T/C%).

For `COc1cc([C@@H]2c3cc4c(cc3[C@@H](O[C@@H]3O[C@H]([C@H]5COC(C)O5)[C@@H](O)[C@H]3O)[C@H]3COC(=O)[C@H]23)OCO4)cc(OC)c1O` (single isomer, unassigned) [Example 2 (epimer I), 4'-demethyl-4-O-(5,6-O-ethylidene-β-D-allofuranosyl)epipodophyllotoxin], the IC50 in assay [1] is above 100 µg/mL. Moreover, the “Anti-P388 T/C % (maximum; MST treated/MST control ×100)” value with murine P388 leukemia (setting [2]) amounted to 150%. As for `COc1cc([C@@H]2c3cc4c(cc3[C@@H](O[C@H]3O[C@@H]5COC(C)O[C@H]5[C@H](O)[C@@H]3O)[C@H]3COC(=O)[C@H]23)OCO4)cc(OC)c1O` (stereo partly drawn) [Example 4, 4'-demethyl-4-O-(4,6-O-ethylidene-α-D-mannopyranosyl)epipodophyllotoxin], the IC50 in assay [1] is 19 µg/mL (≈ 32.3 µM). Also, the “Anti-P388 T/C % (maximum; MST treated/MST control ×100)” value in the assay on murine P388 leukemia (10 mg/kg/Day (dose giving maximum T/C%)) is 124%. On to `COc1cc([C@@H]2c3cc4c(cc3[C@@H](O[C@@H]3O[C@@H]5CO[C@@H](C)O[C@H]5[C@H](O)[C@H]3O)[C@H]3COC(=O)[C@H]23)OCO4)cc(OC)c1O` [Etoposide, reference compound], for which the IC50 in assay [1] worked out at 0.21 µg/mL (≈ 0.357 µM). Besides, the “Anti-P388 T/C % (maximum; MST treated/MST control ×100)” value in the assay on murine P388 leukemia (setting [2]) is 288%.

For the compound `COc1cc([C@@H]2c3cc4c(cc3[C@@H](O[C@@H]3O[C@@H]5COC(C)O[C@H]5[C@@H](O)[C@H]3O)[C@H]3COC(=O)[C@H]23)OCO4)cc(OC)c1O` (stereo partly drawn) [Example 1, 4'-Demethyl-4-O-(4,6-O-ethylidene-β-D-allopyranosyl)epidpodophyllotoxin], the IC50 in assay [1] amounted to 2.1 µg/mL (≈ 3.57 µM). In the assay with murine P388 leukemia (setting [3]), the “Anti-P388 T/C % (maximum; MST treated/MST control ×100)” value worked out at 280%. With `COc1cc([C@@H]2c3cc4c(cc3[C@@H](O[C@@H]3O[C@H]([C@H]5COC(C)O5)[C@@H](O)[C@H]3O)[C@H]3COC(=O)[C@H]23)OCO4)cc(OC)c1O` (single isomer, unassigned) [Example 2 (epimer II), 4'-demethyl-4-O-(5,6-O-ethylidene-β-D-allofuranosyl)epipodophyllotoxin], the “Anti-P388 T/C % (maximum; MST treated/MST control ×100)” value in the assay on murine P388 leukemia (setting [3]) was 140%. As for `COc1cc([C@@H]2c3cc4c(cc3[C@@H](O[C@@H]3O[C@@H]5COC(C)O[C@H]5[C@H](O)[C@@H]3O)[C@H]3COC(=O)[C@H]23)OCO4)cc(OC)c1O` (stereo partly drawn) [Example 3, 4'-Demethyl-4-O-(4.6-O-ethylidene-β-D-mannopyranosyl)epipodophyllotoxin], in assay [1], the IC50 stood at 0.12 µg/mL (≈ 0.204 µM). In addition, the “Anti-P388 T/C % (maximum; MST treated/MST control ×100)” value in the assay on murine P388 leukemia (30 mg/kg/Day (dose giving maximum T/C%)) is on record as 186%.
